Values quoted from earlier work, collected in US20220168203A1, “METHOD FOR PREPARING HAIR TREATMENTS AGENTS WITH ORGANIC C1-C6 ALKOXY-SILANES” (Henkel AG & Co. KGaA, priority 2019, published 2022).

Settings: 25° C.

Molecule | solubility in water | solubility in water (in words)
O=S(=O)(O)c1ccc(N=Nc2c(O)ccc3ccccc23)cc1 [Acid Orange 7, 4-[(2-hydroxy-1-naphthyl)azo]benzene sulphonate] | more than 7 g/L | 
O=[N+]([O-])c1cc([N+](=O)[O-])c2ccc(S(=O)(=O)O)cc2c1O [Acid Yellow 9, 8-hydroxy-5,7-dinitro-2-naphthalenesulfonic acid] | above 40 g/L | 
O=C(O)C1=NN(c2ccc(S(=O)(=O)O)cc2)C(=O)C1N=Nc1ccc(S(=O)(=O)O)cc1 (stereo not shown) [Acid Yellow 23, 4,5-dihydro-5-oxo-1-(4-sulfophenyl)-4-((4-sulfophenyl)azo)-1H-pyrazole-3-carboxylic acid] |  | highly soluble
Acid Yellow 3 | 20 mg/mL | 
